Patent US20240018115A1, “ALLOSTERIC CHROMENONE INHIBITORS OF PHOSPHOINOSITIDE 3-KINASE (PI3K) FOR THE TREATMENT OF DISEASE” (Petra Pharma Corporation, priority 2022, published 2024)

target: T1, PI3K-Alpha kinase H1047R mutant (Homo sapiens, UniProt P42336, H1047R); assay: PI3K-Alpha Kinase (PIK3CA) Activity, H1047R Mutant In Vitro Cell Based Assay (MDA-MB-453 cells, AlphaLisa SureFire Ultra); details: 0% FBS, 3 hours treatment, relative IC50
T1 construct: host or cells: MDA-MB-453
Experimental: PI3K-Alpha Kinase (PIK3CA) Activity, H1047R Mutant In Vitro Cell Based Assay and Determining IC50 Values for Inhibitors
The MDA-MB-453 (ATCC-HTB-131) cell line was obtained from the American Type Culture Collection (Manassas, VA). Cells were maintained in Dulbecco's Modified Eagle Media (DMEM, Gibco 11965-092) supplemented with 10% Fetal Bovine Serum, heat inactivated (FBS HI, Gibco 10082-147), 1× non-essential amino acids (NEAA, Gibco 11140-050), and 1 mM sodium pyruvate (Gibco 11360-070). Cultures were maintained in a humidified incubator at 37° C. under 5% CO2/95% air.
For compound testing in 0% FBS, MDA-MB-453 cells were seeded at a density of 1.5×10^4 cells per well in white 384-well plates in 20 μl of Minimum Essential Media (MEM) assay media with 1×NEAA, 1 mM sodium pyruvate, and 1 μg/mL human insulin (Sigma I9278). Compounds dissolved in 10 mM stock solutions in DMSO were serially diluted 1:3 in DMSO to generate a 10-point dilution series and plated using an acoustic liquid handler system (Echo 550 Series Liquid Handler, Labcyte). A 5× intermediate compound dilution plate in MEM with 1×NEAA and 1 mM sodium pyruvate (150 μM starting compound concentration in 1.5% DMSO) was then prepared. Five μl of the intermediate serially diluted compounds were added to the cell plate to final concentrations ranging from […] in 0.3% DMSO. 0.3% DMSO alone was used to establish the maximum (MAX) signal and GDC-0032 at a final concentration of 1 μM was used as a reference compound for the minimum (MIN) signal. After 3 hours treatment, the medium was removed, and the cells lysed in 10 μL of 1× SureFire Lysis buffer with shaking for 10 minutes at room temperature. The Acceptor Mix (Reaction Buffer 1+Reaction Buffer 2+Activation Buffer+SureFire Ultra Acceptor Beads) was prepared by diluting Activation buffer 25-fold in combined Reaction Buffer 1 and Reaction Buffer 2. The Acceptor beads were diluted 50-fold in the combined Reaction Buffers. Five μL of Acceptor Mix was added to each well, the plate was sealed and covered with foil and incubated for 1 hour at room temperature. The Donor Mix (dilution buffer+SureFire Ultra Donor Beads) was prepared by diluting Donor Beads 50-fold in dilution buffer. Five μL of the Donor Mix was added to each well and the plate sealed and covered with foil and incubated for 1 hour at room temperature in the dark. The plates were read on a Neo2 plate reader instrument from Biotek using standard AlphaLisa settings. Compounds were tested in duplicate and the average % inhibition at each compound concentration was used to generate a single dose response curve. The data were processed using the Genedata-Screener tool. Relative IC50 values were determined using luminescence units by calculating percent inhibition with respect to the in-plate “MIN” (GDC-0032 reference control) and “MAX” (DMSO) controls. The data was analyzed using a 4-parameter nonlinear logistic equation (four-parameter logistic concentration-response curve):
Y=bottom+[(top−bottom)/1+(X/IC50)slope]
where Y=% inhibition, X=concentration of inhibitor, bottom=minimum value of y attained by curve-fit, top=maximum value of y attained by curve-fit and slope=steepness of curve at the IC50.
% Inhibition=[(signal at X−median Min)/(median Max−median Min)]×100
IC50: concentration of compound that reduces a given response (ligand binding, enzyme response) by 50%. Relative IC50: concentration giving half the compound's maximum response.

T1 sequence (P42336 whole entry H1047R): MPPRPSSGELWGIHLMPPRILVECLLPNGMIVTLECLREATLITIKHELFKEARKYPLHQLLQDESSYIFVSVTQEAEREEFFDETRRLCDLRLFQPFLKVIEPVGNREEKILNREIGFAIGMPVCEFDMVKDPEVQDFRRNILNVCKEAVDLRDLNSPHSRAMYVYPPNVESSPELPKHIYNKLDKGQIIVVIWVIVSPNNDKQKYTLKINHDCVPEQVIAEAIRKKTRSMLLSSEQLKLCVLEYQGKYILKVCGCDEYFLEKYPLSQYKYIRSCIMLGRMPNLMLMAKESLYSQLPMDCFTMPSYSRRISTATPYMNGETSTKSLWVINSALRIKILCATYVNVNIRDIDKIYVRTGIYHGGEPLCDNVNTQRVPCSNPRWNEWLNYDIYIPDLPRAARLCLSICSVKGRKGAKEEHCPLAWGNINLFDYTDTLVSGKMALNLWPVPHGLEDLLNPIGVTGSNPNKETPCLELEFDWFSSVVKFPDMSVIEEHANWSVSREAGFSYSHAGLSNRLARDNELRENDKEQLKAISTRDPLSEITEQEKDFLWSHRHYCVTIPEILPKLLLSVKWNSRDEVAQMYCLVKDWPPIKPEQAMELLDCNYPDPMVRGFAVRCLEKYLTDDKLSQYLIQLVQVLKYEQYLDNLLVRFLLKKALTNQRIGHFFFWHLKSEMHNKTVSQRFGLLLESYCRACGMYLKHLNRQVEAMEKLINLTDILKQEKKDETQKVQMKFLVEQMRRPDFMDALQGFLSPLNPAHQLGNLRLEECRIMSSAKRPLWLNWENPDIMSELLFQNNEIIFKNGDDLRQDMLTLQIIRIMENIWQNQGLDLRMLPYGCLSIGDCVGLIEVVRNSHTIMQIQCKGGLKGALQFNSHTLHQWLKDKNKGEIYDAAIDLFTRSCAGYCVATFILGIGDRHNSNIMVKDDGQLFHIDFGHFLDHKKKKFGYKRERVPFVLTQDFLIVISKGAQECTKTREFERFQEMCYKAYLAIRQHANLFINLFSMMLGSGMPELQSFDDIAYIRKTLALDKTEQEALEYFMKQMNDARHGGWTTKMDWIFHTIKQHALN
T1 sequence (P27986 whole entry partner): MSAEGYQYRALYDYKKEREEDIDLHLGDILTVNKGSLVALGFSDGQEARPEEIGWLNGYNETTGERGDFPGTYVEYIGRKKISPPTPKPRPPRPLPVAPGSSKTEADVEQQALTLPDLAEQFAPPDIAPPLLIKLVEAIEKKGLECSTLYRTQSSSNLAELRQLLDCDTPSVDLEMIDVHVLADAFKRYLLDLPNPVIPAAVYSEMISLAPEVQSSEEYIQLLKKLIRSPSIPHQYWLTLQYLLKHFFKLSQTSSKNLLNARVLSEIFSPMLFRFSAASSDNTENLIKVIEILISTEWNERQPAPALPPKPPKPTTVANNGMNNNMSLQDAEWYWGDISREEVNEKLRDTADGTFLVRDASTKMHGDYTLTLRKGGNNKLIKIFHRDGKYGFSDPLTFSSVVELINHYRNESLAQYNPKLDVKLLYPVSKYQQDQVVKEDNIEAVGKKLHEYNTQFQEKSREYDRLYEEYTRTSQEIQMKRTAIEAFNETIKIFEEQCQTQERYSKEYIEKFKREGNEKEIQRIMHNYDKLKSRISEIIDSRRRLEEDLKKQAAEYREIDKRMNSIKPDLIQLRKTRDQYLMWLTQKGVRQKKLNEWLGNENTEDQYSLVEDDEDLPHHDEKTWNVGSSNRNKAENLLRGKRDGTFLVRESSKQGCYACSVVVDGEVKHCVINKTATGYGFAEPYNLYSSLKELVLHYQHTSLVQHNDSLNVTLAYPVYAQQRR

SMILES	IC50 [nM]
Cc1cc(C(C)Nc2ccccc2-n2cnnn2)c2oc(-c3ccccc3)c(C)c(=O)c2c1 (single isomer, unassigned) [Example 24A, 3,6-Dimethyl-2-phenyl-8-[1-[2-(tetrazol-1-yl)anilino]ethyl]chromen-4-one]	< 500
Cc1cc(C(C)Nc2cccc3c2C(=O)C(=O)N3)c2oc(-c3ccccc3)c(C)c(=O)c2c1 (single isomer, unassigned) [Example 27A]	< 1000
Cc1cc([C@@H](C)Nc2ccc(Cl)cc2)c2oc(-c3ccccc3)c(C)c(=O)c2c1 [Example 12B, 8-[(1R)-1-(4-Chloroanilino)ethyl]-3,6-dimethyl-2-phenyl-chromen-4-one]	< 1000
Cc1cc([C@@H](C)Nc2ccc(Cl)nc2)c2oc(-c3ccc(CN(C)C)cc3)c(C)c(=O)c2c1 [Example 22B, 8-[(1R)-1-[(6-Chloro-3-pyridyl)amino]ethyl]-2-[4-[(dimethylamino)methy1]phenyl]-3,6-dimethyl-chromen-4-one]	< 500
Cc1cc(C(C)Nc2ccccc2S(N)(=O)=O)c2oc(-c3ccccc3)c(C)c(=O)c2c1 (centres unmarked) [Example 32A, 2-[1-(3,6-Dimethyl-4-oxo-2-phenyl-chromen-8-yl)ethylamino]benzenesulfonamide]	< 500
Cc1cc([C@@H](C)Nc2cccnc2-c2ncon2)c2oc(-c3ccccc3)c(C)c(=O)c2c1 [Example 53C, 3,6-Dimethyl-8-[(1R)-1-[[2-(1,2,4-oxadiazol-3-yl)-3-pyridyl]amino]ethyl]-2-phenyl-chromen-4-one]	< 500
Cc1cc([C@@H](C)Nc2ccccc2C(=O)C=S(C)(C)=O)c2oc(-c3ccccc3)c(C)c(=O)c2c1 [Example 54C, 8-[(1R)-1-[2-[2-[Dimethyl(oxo)-lambda6-sulfanylidene]acetyl]anilino]ethyl]-3,6-dimethyl-2-phenyl-chromen-4-one]	< 500
Cc1cc([C@@H](C)Nc2cccnc2-c2n[nH]c(=O)[nH]2)c2oc(-c3ccccc3)c(C)c(=O)c2c1 [Example 63A, 3-[3-[[(1R)-1-(3,6-Dimethyl-4-oxo-2-phenyl-chromen-8-yl)ethyl]amino]-2-pyridyl]-1,4-dihydro-1,2,4-triazol-5-one]	< 500
Cc1cc([C@@H](C)Nc2ccccc2-c2nncn2C)c2oc(-c3ccccc3)c(C)c(=O)c2c1 [Example 66A, 3,6-Dimethyl-8-[(1R)-1-[2-(4-methyl-1,2,4-triazol-3-yl)anilino]ethyl]-2-phenyl-chromen-4-one]	< 500
Cc1cc([C@@H](C)Nc2ccc(Cl)nc2C)c2oc(-c3ccc4cn[nH]c4c3)c(C)c(=O)c2c1 [Example 78B, 8-[(1R)-1-[(6-Chloro-2-methyl-3-pyridyl)amino]ethyl]-2-(1H-indazol-6-yl)-3,6-dimethyl-chromen-4-one]	< 500
CNC(=O)c1ccccc1N[C@H](C)c1cc(C)cc2c(=O)c(C)c(-c3ccc4nn(C)cc4c3)oc12 [Example 84A]	< 500
CNC(=O)c1ccccc1N[C@H](C)c1cc(C)cc2c(=O)c(C)c(-c3cccc(F)c3)oc12 [Example 86A, 2-[[(1R)-1-[2-(3-Fluorophenyl)-3,6-dimethyl-4-oxo-chromen-8-yl]ethyl]amino]-N-methyl-benzamide]	< 500
CONS(=O)(=O)c1ccccc1N[C@H](C)c1cc(C)cc2c(=O)c(C)c(-c3ccccc3)oc12 [Example 129C, 2-[[(1R)-1-(3,6-Dimethyl-4-oxo-2-phenyl-chromen-8-yl)ethyl]amino]-N-methoxy-benzenesulfonamide]	< 500
Cc1cc([C@@H](C)Nc2ccc(Cl)nc2C(=O)NS(N)(=O)=O)c2oc(-c3ccccc3)c(C)c(=O)c2c1 [Example 130C, 6-Chloro-3-[[(1R)-1-(3,6-dimethyl-4-oxo-2-phenyl-chromen-8-yl)ethyl]amino]-N-sulfamoyl-pyridine-2-carboxamide]	< 500
Cc1cc([C@@H](C)Nc2ccc(Cl)nc2S(N)(=O)=O)c2oc(-c3ccccc3)c(-c3cnoc3)c(=O)c2c1 [Example 132C]	< 500
Cc1cc([C@@H](C)Nc2ccc(Cl)nc2S(N)(=O)=O)c2oc(-c3ccc(=O)n(C(C)C)c3)c(C)c(=O)c2c1 [Example 133C]	< 500
Cc1cc([C@@H](C)Nc2cccnc2N(C)C)c2oc(-c3cccnc3)c(C)c(=O)c2c1 [Example 168C, 8-[(1R)-1-[[2-(Dimethylamino)-3-pyridyl]amino]ethyl]-3,6-dimethyl-2-(3-pyridyl)chromen-4-one]	< 500
Cc1cc([C@@H](C)Nc2cccnc2C(=O)NCC(C)(C)O)c2oc(-c3ccccc3)c(C)c(=O)c2c1 [Example 177A, 3-[[(1R)-1-(3,6-Dimethyl-4-oxo-2-phenyl-chromen-8-yl)ethyl]amino]-N-(2-hydroxy-2-methyl-propyl)pyridine-2-carboxamide]	< 500

Next, values leading:

IC50 [nM]	SMILES
< 500	Cc1cc(C(C)Nc2ccc(Cl)nc2-c2ccccc2F)c2oc(-c3cccnc3)c(C)c(=O)c2c1 (single isomer, unassigned) [Example 219C, 8-[1-[[6-Chloro-2-(2-fluorophenyl)-3-pyridyl]amino]ethyl]-3,6-dimethyl-2-(3-pyridyl)chromen-4-one]
< 500	Cc1cc(C(C)Nc2ccc(Cl)nc2-c2ccc(=O)[nH]c2)c2oc(-c3cccnc3)c(C)c(=O)c2c1 (single isomer, unassigned) [Example 222C, 5-[6-Chloro-3-[1-[3,6-dimethyl-4-oxo-2-(3-pyridyl)chromen-8-yl]ethylamino]-2-pyridyl]-1H-pyridin-2-one]
< 500	Cc1cc([C@@H](C)Nc2cccnc2C)c2oc(-c3cccnc3)c(C)c(=O)c2c1 [Example 9B, 3,6-Dimethyl-8-[(1R)-1-[(2-methyl-3-pyridyl)amino]ethyl]-2-(3-pyridyl)chromen-4-one]
< 500	Cc1cc([C@@H](C)Nc2ccc(Cl)nc2C)c2oc(-c3cccnc3)c(C)c(=O)c2c1 [Example 10B, 8-[(1R)-1-[(6-Chloro-2-methyl-3-pyridyl)amino]ethyl]-3,6-dimethyl-2-(3-pyridyl)chromen-4-one]
< 500	Cc1cc([C@@H](C)Nc2ccc(Cl)nc2)c2oc(-c3ccccc3)c(C)c(=O)c2c1 [Example 14B, 8-[(1R)-1-[(6-Chloro-3-pyridyl)amino]ethyl]-3,6-dimethyl-2-phenyl-chromen-4-one]
< 1000	Cc1cc([C@@H](C)Nc2ccccc2-c2ncco2)c2oc(-c3ccccc3)c(C)c(=O)c2c1 [Example 65A, 3,6-Dimethyl-8-[(1R)-1-(2-oxazol-2-ylanilino)ethyl]-2-phenyl-chromen-4-one]
< 500	Cc1cc([C@@H](C)Nc2ccccc2-c2cncn2C)c2oc(-c3ccccc3)c(C)c(=O)c2c1 [Example 68A, 3,6-Dimethyl-8-[(1R)-1-[2-(3-methylimidazol-4-yl)anilino]ethyl]-2-phenyl-chromen-4-one]
< 500	Cc1cc([C@@H](C)Nc2ccccc2-c2cncs2)c2oc(-c3cccnc3)c(C)c(=O)c2c1 [Example 72A, 3,6-Dimethyl-2-(3-pyridyl)-8-[(1R)-1-(2-thiazol-5-ylanilino)-ethyl]chromen-4-one]
< 500	Cc1cc([C@@H](C)Nc2ccccc2-c2ccns2)c2oc(-c3cccnc3)c(C)c(=O)c2c1 [Example 74A, 8-[(1R)-1-(2-Isothiazol-5-ylanilino)ethyl]-3,6-dimethyl-2-(3-pyridyl)-chromen-4-one]
< 500	Cc1cc([C@@H](C)Nc2ccc(Cl)nc2S(C)(=O)=O)c2oc(-c3ccccc3)c(C)c(=O)c2c1 [Example 80B, 8-[(1R)-1-[(6-Chloro-2-methylsulfonyl-3-pyridyl)amino]ethyl]-3,6-dimethyl-2-phenyl-chromen-4-one]
< 500	CNC(=O)c1ccccc1N[C@H](C)c1cc(C)cc2c(=O)c(C)c(-c3cccnc3)oc12 [Example 83A, 2-[[(1R)-1-[3,6-Dimethyl-4-oxo-2-(3-pyridyl)chromen-8-yl]ethyl]amino]-N-methyl-benzamide]
